# Measured values published in patent US10597388B2, “Pyridazinone herbicides” (FMC CORPORATION, priority 2014, dated 2020).
# Key:
# Format in all cases: in vivo
# corn (Zea mays) = assay: Test A greenhouse herbicide test, pre- and postemergence; conditions: Postemergence
# Method in brief: (§1)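 Seeds in loam–sand blend received a preemergence directed soil spray; plants at 2–10 cm, one- to two-leaf stage, received postemergence sprays. Compounds in a non-phytotoxic solvent with surfactant. After about 10 d in a greenhouse, injury rated visually versus untreated controls on a 0–100 scale (100 = complete control).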
# [1] = system: ragweed (common ragweed, Ambrosia elatior); assay: as above
# Method in brief: as §1
# [2] = system: wheat (Triticum aestivum); assay: as above; conditions: Postemergence
# Method in brief: as §1
# [3] = system: foxtail, giant (giant foxtail, Setaria faberii); assay: as above
# Method in brief: as §1
# kochia (Kochia scoparia) = assay: as above
# Method in brief: as §1
# [4] = system: ryegrass, Italian (Italian ryegrass, Lolium multiflorum); assay: as above
# Method in brief: as §1
# [5] = system: blackgrass (Alopecurus myosuroides); assay: Test A greenhouse herbicide test, postemergence
# Method in brief: (§2)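 Pot-grown plants (loam soil/sand blend), 2–10 cm tall at the one- to two-leaf stage, received postemergence sprays of formulated test chemical. After about 10 d in the greenhouse, injury was rated visually against untreated controls on a 0 (no effect) to 100 (complete control) scale.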
# [6] = system: galium (catchweed bedstraw, Galium aparine); assay: Test A greenhouse herbicide test, postemergence
# Method in brief: as §2
# [7] = system: ragweed (common ragweed, Ambrosia elatior); assay: Test C greenhouse herbicide test, pre- and postemergence
# Method in brief: (§3)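 Pre- and postemergence greenhouse screen; values are visual control ratings, 0 meaning no effect and 100 complete kill, assigned relative to untreated plants after 13 to 15 d.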
# soybean (Glycine max) = assay: as above
# Method in brief: as §3
# [8] = system: galium (catchweed bedstraw, Galium aparine); assay: as above
# Method in brief: as §3
# [9] = system: ryegrass, Italian (Italian ryegrass, Lolium multiflorum); assay: as above
# Method in brief: as §3
# [10] = 125 g ai/ha, 0 to 100 scale where 0 is no effect and 100 is complete control
# [11] = 500 g ai/ha, visual rating after approx. 10 d, 0 to 100 scale (0 no effect, 100 complete control)
# [12] = Postemergence, 125 g ai/ha, 0 to 100 scale where 0 is no effect and 100 is complete control
# [13] = Postemergence, 500 g ai/ha, visual rating after approx. 10 d, 0 to 100 scale (0 no effect, 100 complete control)
# [14] = Preemergence, 125 g ai/ha, 0 to 100 scale where 0 is no effect and 100 is complete control
# [15] = Preemergence, 500 g ai/ha, 0 to 100 scale where 0 is no effect and 100 is complete control
# [16] = Postemergence, 31 g ai/ha, scale 0 to 100 (0 no effect, 100 complete control)
# [17] = Postemergence, 125 g ai/ha, scale 0 to 100, 0 is no effect, 100 is complete control
# [18] = Postemergence, 250 g ai/ha, scale 0 to 100, 0 no effect, 100 complete control, 13 to 15 d
# [19] = Preemergence, 31 g ai/ha, scale 0 to 100, 0 is no effect, 100 is complete control
# [20] = Preemergence, 62 g ai/ha, scale 0 to 100, 0 is no effect, 100 is complete control
# [21] = Preemergence, 125 g ai/ha, scale 0 to 100, 0 is no effect, 100 is complete control
# [22] = Preemergence, 250 g ai/ha, scale 0 to 100 (0 no effect, 100 complete control)
smiles,measurement,setting,value
CCC(=O)Oc1c(C)nn(C)c(=O)c1-c1c(C)sc2ccc(Cl)cc12 [Compound 109],"Plant response rating, Corn",corn (Zea mays); [10],0
same,"Plant response rating, Corn",corn (Zea mays); [11],30
same,"Plant response rating, Ragweed",[1]; [12],80
same,"Plant response rating, Ragweed",[1]; [13],100
same,Ragweed plant response rating,[1]; [14],100
same,"Plant response rating, Ragweed",[1]; [15],100
same,"Plant response rating, Wheat",[2]; [10],20
same,"Plant response rating, Wheat",[2]; [11],30
same,"Plant response rating, Foxtail, Giant",[3]; [12],70
same,"Plant response rating, Foxtail, Giant",[3]; [13],90
same,"Foxtail, Giant plant response rating",[3]; [14],90
same,"Plant response rating, Foxtail, Giant",[3]; [15],100
same,"Plant response rating, Kochia",kochia (Kochia scoparia); [12],90
same,"Plant response rating, Kochia",kochia (Kochia scoparia); [13],90
same,Kochia plant response rating,kochia (Kochia scoparia); [14],100
same,"Plant response rating, Kochia",kochia (Kochia scoparia); [15],100
same,"Plant response rating, Ryegrass, Italian",[4]; [12],100
same,"Plant response rating, Ryegrass, Italian",[4]; [13],100
same,"Ryegrass, Italian plant response rating",[4]; [14],100
same,"Plant response rating, Ryegrass, Italian",[4]; [15],100
same,"Plant response rating, Blackgrass",[5]; [10],80
same,Blackgrass plant response rating,"[5]; 500 g ai/ha, 0 to 100 scale, 0 is no effect, 100 is complete control",90
same,"Plant response rating, Galium",[6]; [10],100
same,"Plant response rating, Galium",[6]; [11],100
same,"Plant response rating, Ragweed",[7]; [16],80
same,"Plant response rating, Ragweed",[7]; [17],100
same,"Plant response rating, Ragweed",[7]; [18],100
same,"Plant response rating, Ragweed",[7]; [19],95
same,"Plant response rating, Ragweed",[7]; [20],90
same,"Plant response rating, Ragweed",[7]; [21],95
same,Ragweed plant response rating,[7]; [22],100
same,"Plant response rating, Soybean",soybean (Glycine max); [16],0
same,"Plant response rating, Soybean",soybean (Glycine max); [17],30
same,"Plant response rating, Soybean",soybean (Glycine max); [18],25
same,"Plant response rating, Soybean",soybean (Glycine max); [19],0
same,"Plant response rating, Soybean",soybean (Glycine max); [20],0
same,"Plant response rating, Soybean",soybean (Glycine max); [21],0
same,Soybean plant response rating,soybean (Glycine max); [22],0
same,"Plant response rating, Galium",[8]; [16],98
same,"Plant response rating, Galium",[8]; [17],100
same,"Plant response rating, Galium",[8]; [18],100
same,"Plant response rating, Galium",[8]; [19],90
same,"Plant response rating, Galium",[8]; [20],90
same,"Plant response rating, Galium",[8]; [21],90
same,Galium plant response rating,[8]; [22],90
same,"Plant response rating, Ryegrass, Italian",[9]; [16],90
same,"Plant response rating, Ryegrass, Italian",[9]; [17],90
same,"Plant response rating, Ryegrass, Italian",[9]; [18],90
same,"Plant response rating, Ryegrass, Italian",[9]; [19],70
same,"Plant response rating, Ryegrass, Italian",[9]; [20],90
same,"Plant response rating, Ryegrass, Italian",[9]; [21],90
same,"Ryegrass, Italian plant response rating",[9]; [22],95
CCC(=O)Oc1c(Cl)nn(C)c(=O)c1-c1c(C)sc2ccc(Cl)cc12 [Compound 111],"Plant response rating, Corn",corn (Zea mays); [10],0
same,"Plant response rating, Corn",corn (Zea mays); [11],20
same,"Plant response rating, Ragweed",[1]; [12],70
same,"Plant response rating, Ragweed",[1]; [13],100
same,Ragweed plant response rating,[1]; [14],80
same,"Plant response rating, Ragweed",[1]; [15],90
same,"Plant response rating, Wheat",[2]; [10],20
same,"Plant response rating, Wheat",[2]; [11],30
same,"Plant response rating, Foxtail, Giant",[3]; [12],70
same,"Plant response rating, Foxtail, Giant",[3]; [13],100
same,"Foxtail, Giant plant response rating",[3]; [14],80
same,"Plant response rating, Foxtail, Giant",[3]; [15],100
same,"Plant response rating, Kochia",kochia (Kochia scoparia); [12],40
same,"Plant response rating, Kochia",kochia (Kochia scoparia); [13],90
same,Kochia plant response rating,kochia (Kochia scoparia); [14],60
same,"Plant response rating, Kochia",kochia (Kochia scoparia); [15],100
same,"Plant response rating, Ryegrass, Italian",[4]; [12],90
same,"Plant response rating, Ryegrass, Italian",[4]; [13],100
same,"Ryegrass, Italian plant response rating",[4]; [14],90
same,"Plant response rating, Ryegrass, Italian",[4]; [15],100
same,"Plant response rating, Blackgrass",[5]; [10],30
same,"Plant response rating, Blackgrass",[5]; [11],70
same,"Plant response rating, Galium",[6]; [10],90
same,"Plant response rating, Galium",[6]; [11],100
same,"Plant response rating, Ragweed",[7]; [16],98
same,"Plant response rating, Ragweed",[7]; [17],98
same,"Plant response rating, Ragweed",[7]; [18],100
same,"Plant response rating, Ragweed",[7]; [19],60
same,"Plant response rating, Ragweed",[7]; [20],75
same,"Plant response rating, Ragweed",[7]; [21],90
same,Ragweed plant response rating,[7]; [22],98
same,"Plant response rating, Soybean",soybean (Glycine max); [16],0
same,"Plant response rating, Soybean",soybean (Glycine max); [17],5
same,"Plant response rating, Soybean",soybean (Glycine max); [18],10
same,"Plant response rating, Soybean",soybean (Glycine max); [21],0
same,Soybean plant response rating,soybean (Glycine max); [22],0
same,"Plant response rating, Galium",[8]; [16],95
same,"Plant response rating, Galium",[8]; [17],95
same,"Plant response rating, Galium",[8]; [18],95
same,"Plant response rating, Galium",[8]; [19],80
same,"Plant response rating, Galium",[8]; [20],80
same,"Plant response rating, Galium",[8]; [21],100
same,Galium plant response rating,[8]; [22],100
same,"Plant response rating, Ryegrass, Italian",[9]; [16],85
same,"Plant response rating, Ryegrass, Italian",[9]; [17],95
same,"Plant response rating, Ryegrass, Italian",[9]; [18],95
same,"Plant response rating, Ryegrass, Italian",[9]; [19],10
same,"Plant response rating, Ryegrass, Italian",[9]; [20],90
same,"Plant response rating, Ryegrass, Italian",[9]; [21],85
same,"Ryegrass, Italian plant response rating",[9]; [22],95
Cc1sc2ccc(Cl)cc2c1-c1c(OS(C)(=O)=O)c(Cl)nn(C)c1=O [Compound 114],"Plant response rating, Corn",corn (Zea mays); [10],0
same,"Plant response rating, Corn",corn (Zea mays); [11],30
same,"Plant response rating, Ragweed",[1]; [12],70
same,"Plant response rating, Ragweed",[1]; [13],80
same,Ragweed plant response rating,[1]; [14],80
same,"Plant response rating, Ragweed",[1]; [15],90
same,"Plant response rating, Wheat",[2]; [10],20
same,"Plant response rating, Wheat",[2]; [11],40
same,"Plant response rating, Foxtail, Giant",[3]; [12],70
same,"Plant response rating, Foxtail, Giant",[3]; [13],90
same,"Foxtail, Giant plant response rating",[3]; [14],40
same,"Plant response rating, Foxtail, Giant",[3]; [15],90
same,"Plant response rating, Kochia",kochia (Kochia scoparia); [12],30
same,"Plant response rating, Kochia",kochia (Kochia scoparia); [13],60
same,Kochia plant response rating,kochia (Kochia scoparia); [14],30
same,"Plant response rating, Kochia",kochia (Kochia scoparia); [15],100
same,"Plant response rating, Ryegrass, Italian",[4]; [12],90
same,"Plant response rating, Ryegrass, Italian",[4]; [13],90
same,"Ryegrass, Italian plant response rating",[4]; [14],80
same,"Plant response rating, Ryegrass, Italian",[4]; [15],90
same,"Plant response rating, Blackgrass",[5]; [10],20
same,"Plant response rating, Blackgrass",[5]; [11],60
same,"Plant response rating, Galium",[6]; [10],90
same,"Plant response rating, Galium",[6]; [11],100
same,"Plant response rating, Ragweed",[7]; [16],90
same,"Plant response rating, Ragweed",[7]; [17],98
same,"Plant response rating, Ragweed",[7]; [18],100
same,"Plant response rating, Ragweed",[7]; [19],55
same,"Plant response rating, Ragweed",[7]; [20],75
same,"Plant response rating, Ragweed",[7]; [21],95
same,Ragweed plant response rating,[7]; [22],98
same,"Plant response rating, Soybean",soybean (Glycine max); [16],0
same,"Plant response rating, Soybean",soybean (Glycine max); [17],0
same,"Plant response rating, Soybean",soybean (Glycine max); [18],5
same,"Plant response rating, Soybean",soybean (Glycine max); [19],0
same,"Plant response rating, Soybean",soybean (Glycine max); [20],0
same,"Plant response rating, Soybean",soybean (Glycine max); [21],20
same,"Plant response rating, Galium",[8]; [16],95
same,"Plant response rating, Galium",[8]; [17],95
same,"Plant response rating, Galium",[8]; [18],95
same,"Plant response rating, Galium",[8]; [19],98
same,"Plant response rating, Galium",[8]; [20],98
same,"Plant response rating, Galium",[8]; [21],100
same,Galium plant response rating,[8]; [22],100
same,"Plant response rating, Ryegrass, Italian",[9]; [16],60
same,"Plant response rating, Ryegrass, Italian",[9]; [17],80
same,"Plant response rating, Ryegrass, Italian",[9]; [18],95
same,"Plant response rating, Ryegrass, Italian",[9]; [19],40
same,"Plant response rating, Ryegrass, Italian",[9]; [20],85
same,"Plant response rating, Ryegrass, Italian",[9]; [21],90
same,"Ryegrass, Italian plant response rating",[9]; [22],95
